Earlier results as cited in PMC8152572 (Chemical Science, 2020).

System: scFv-SM3
Conditions: SM3 antibody, comparison of 2a, 2b and 2c

APDTRP [Compound 2c]
binding to SM3 (in words): worse binding to the naked derivative 2c
